The values that follow come from paper PMC4197335, “Cancer-Selective Targeting of the NF-κB Survival Pathway with GADD45β/MKK7 Inhibitors” (Cancer Cell, 2014).

Data set [1] concerns human mesenchymal stem cells (MSCs). The data set can be described thus: cells. The following applies: read-out: IC50 (normal; MCSs); at 48 hr. The text has this:
(§1) Additional details are provided in Supplemental Experimental Procedures.
(§2) automated system (Becton Dick inson) and analyzed with FlowJo.

Data set [2] relates to mouse lymph node (LN) cells. Nature of the data set: cells. The conditions noted are these: read-out: IC50 (normal; lymph node cells); at 48 hr.
From the text: as §1, §2

In data set [3] the test system is CD138+ cells from MM patients. Nature of the data set: cells. The conditions noted are these: read-out: IC50 (MM; PCs (n = 8)); at 48 hr; mean ± SEM.
From the text: as §1, §2

Another data set concerns mouse splenocytes. The data set can be described thus: cells. The following applies: read-out: IC50 (normal; splenocytes); at 48 hr.
From the text: as §1, §2

In another data set the test system is human BMSCs. The data set can be described thus: cells. The following applies: read-out: IC50 (normal; BMSCs); at 48 hr.
From the text: as §1, §2

The subject of data set [4] is CD138+ cells from WM patients. The data set can be described thus: cells. The conditions noted are these: read-out: IC50 (WM; PCs (n= 2)); at 48 hr; mean ± SEM.
From the text: as §1, §2

The next data set relates to human PBMCs. Nature of the data set: cells. The conditions noted are these: read-out: IC50 (normal; PBMCs); at 48 hr.
From the text: as §1, §2

A further data set can be described thus: microsomal stability. It is filed as in vitro ADME, human. The source says:
(§3) Pharmacophore Model Building
(§4) The pharmacophore predictive
(§5) Broad- Panel Kinase Profiling
(§6) according to in-house protocols therein.
(§7) Pharmacokinetic Anal yses
(§8) In vitro pharmacok inetic assays were […]

The next data set in a line: plasma protein binding. The following applies: read-out: PPB (fraction unbound). The class given is in vitro ADME.
From the text: as §3, §4, §5, §6, §7, §8

The nature of data set [5]: pharmacokinetics after single intravenous injection. The procedure:
The pharmacokinetic analyses of DTP3 and z-DTP2 were outsourced. Additional details are provided in Supplemental Experimental Procedures. […]
as §7
In vitro and in vivo pharmacok inetic analyses were outsourced to Cypr ot ex (http://www.c yprotex.com/home/) (Figure 7A, Tables S6). In vitro pharmacok inetic assays were perf ormed according to established, in- house protocols and included: plasma stability (human), thermodynamic solubility (PBS pH 7.4, at 37 °C f or 14 days), microsomal stability (human), plasma protein binding (PPB; mouse and human), and distribution coeff icient (LogD). In vivo pharmacok inetic […]
analyses were also perf ormed at Cyprotex according to established, in- house protocols. Brief ly, the peptides were dissolved in PBS and administered by single intravenous injection t o CD1 male mice at the dose of 10 mg/kg (25 -30 g of total body weight; n=3 mice per time point per compound) . Blood samples were collected in heparinized tubes at up to 7 tim e points after this injection (i.e. 0.08, 0.25, 0.5, 1, 2, 4 and 8 hr), and the plasma concentrations of the test peptide were determined at each time point by LC-MS/ MS, using a f ive- point standard curve covering a peptide concentration range from 3 to 3,000 ng/mL. Standard curves were prepared using blank plasma matrices and treated in the same manner as the test samples. The main pharmacok inetic parameters determined in these analyses were: terminal half-lif e (t 1/2 ), plasma clearance (CL), volume of distribution (V d ), and area under the plasma concentration versus time curve (AUC) (Figure 7A, Table S6). Values were calculated from the data of the peptide plasma concentration versus time curves using a non-compartmental model analysis, as described elsewhere (Groulx, 2006; Landaw and Di Stef ano 3rd, 1982) . […]

The nature of another data set: tolerability in mice. The text has this:
Table S6, related to Figure 7. Summary of the pharmacokinetic profiles of DTP3 and z-DTP2
PK Param enters Values Drug
Values denote means ± SD (n=3) or SEM (n=5), as indicated. MW , molecular

Data set [6] is described as follows: subcutaneous U266 myeloma xenograft (plasmacytoma model). The class given is in vivo, mice. The conditions noted are these: male, NOD/SCID (NOD.CB17-Prkdcscid/IcrCrl), mouse, plasma, sc; continual infusion 14.5 mg/kg/day; SEM, n=16; read-out: plasma concentration at the steady state.
In a further data set the target is T1, GADD45β/MKK7 complex (Homo sapiens, UniProt O14733).
T1 construct: Full-length human (h)MKK7 was expressed as a protein fused to an N-terminal GST tag (GST-MKK7); made in house
T1 sequence (O14733 1-419): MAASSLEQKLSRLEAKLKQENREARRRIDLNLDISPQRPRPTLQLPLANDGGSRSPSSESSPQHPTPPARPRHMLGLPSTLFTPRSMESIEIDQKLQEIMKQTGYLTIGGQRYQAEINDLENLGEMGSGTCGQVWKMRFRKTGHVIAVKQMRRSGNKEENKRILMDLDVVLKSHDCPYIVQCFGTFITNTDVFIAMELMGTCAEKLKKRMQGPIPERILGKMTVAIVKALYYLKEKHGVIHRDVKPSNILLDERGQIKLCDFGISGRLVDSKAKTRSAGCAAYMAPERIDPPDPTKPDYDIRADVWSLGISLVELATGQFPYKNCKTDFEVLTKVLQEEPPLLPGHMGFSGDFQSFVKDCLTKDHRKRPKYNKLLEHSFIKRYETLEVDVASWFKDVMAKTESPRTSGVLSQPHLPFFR
Nature of the data set: ELISA GADD45β/MKK7 competition assay. The class given is binding. On the technique in general: ELISA stands for enzyme-linked immunosorbent assay.

Read-outs that look alike come from different tables or passages of the source.

Turning to `CC(=O)N[C@H](Cc1ccc(O)cc1)C(=O)N[C@H](CCCNC(=N)N)C(=O)N[C@H](Cc1ccccc1)C(N)=O` [DTP3, Ac-YRF-NH2], the IC50 is over 100 µM in [1]; over 100 µM in [2]; 0.0282 ± 0.0001 µM in data set [3]; over 100 µM in the data set on mouse splenocytes; over 100 µM in the data set on human BMSCs; over 10 µM in data set [4]. In addition, the IC50 with human PBMCs was over 100 µM; on GADD45β/MKK7 complex (Table S4, read-out: IC50s (ELISA)), 0.00016 µM. The “microsomal stability (human)” value in “microsomal stability” turned out to be 4.87 ± 1.24 µL/min/mg protein. Moreover, the half-life in the data set “microsomal stability” (human, microsomes, read-out: microsomal stability (human) t½) is 4.75 h; in data set [5] (mouse, in vivo, iv, 10 mg/kg) it was 1.26 h. In addition, the fraction unbound (in general, free concentration divided by total concentration) in “plasma protein binding” (human) amounted to 0.933 ± 0.004; in “plasma protein binding” (mouse), 0.42 ± 0.01. The “predicted dose required to achieve the therapeutic plasma concentration of 1 μM at the steady state” value in data set [5] (k0 = k1 x Vd x Cp) is 0.81 mg/kg/h. In addition, in [5] (mouse, in vivo, iv, 10 mg/kg), the AUC (as a rule, concentration integrated over time) is 6430 ± 10 ng·h/mL. For the same molecule, in data set [5] (mouse, in vivo, iv, 10 mg/kg), the volume of distribution (Vd) (as a rule, the apparent volume that relates the amount in the body to the concentration in plasma or blood) was 2.8 ± 1.26 L/kg. Further, the clearance (commonly a measure of how efficiently the substance is removed, as volume per time) in [5] (mouse, in vivo, iv, 10 mg/kg) stood at 27.1 ± 4.09 mL/min/kg. Also, the “Toxicity - continual s.c. dosing (14.5 mg/kg/day for 28 days)” value in “tolerability in mice” (mice, osmotic pumps) is reported as “no apparent toxicity”. For the same molecule, the “Toxicity - single i.v. (10 mg/kg)” value in the data set “tolerability in mice” (mouse, in vivo, iv, 10 mg/kg) was “no apparent toxicity”. In addition, in “tolerability in mice” (mouse, in vivo, po, 100 mg/kg), the “Toxicity - oral (100 mg/kg)” value is listed as “no apparent toxicity”. The “Toxicity - single s.c. (10 mg/kg)” value in the data set “tolerability in mice” (mouse, in vivo, sc, 10 mg/kg) is “no apparent toxicity”. The level at time molar in data set [6] came to 700 ± 90 nM. For the same molecule, at GADD45β/MKK7 complex (read-out: % inhibition of (ELISA)), the inhibition (usually the percentage by which the read-out fell short of the control) at 0.042 µM came to 94%.
